Results published in ChEMBL document CHEMBL6134788, “Development of naphthalimide hydrazide derivatives as potent antibacterial agents against carbapenem-resistant A. baumannii” (RSC Med Chem, 2024).
In brackets after ≈: the same amount, converted by molar mass. Activity calls are given as the source filed them. The calls are words filed in the database; no cut-off is given here.

Legend:
Acinetobacter baumannii [1] = assay: Antibacterial activity against multi-drug resistant Acinetobacter baumannii clinical isolate 3 assessed as inhibition of bacterial growth incubated for 16 to 18 hrs by CLSI protocol based method; type: functional; details: time 16-18 hrs, read-out: MIC100
Acinetobacter baumannii [2] = assay: Synergistic antibacterial activity against carbapenem-resistant Acinetobacter baumannii BAA 1605 assessed as reduction in bacterial growth measured within 24 hrs in presence of tobramycin by time-kill kinetics analysis; type: functional, organism-based
Acinetobacter baumannii [3] = assay: Antibacterial activity against multi-drug resistant Acinetobacter baumannii clinical isolate 1 assessed as inhibition of bacterial growth incubated for 16 to 18 hrs by CLSI protocol based method; type: functional; details: time 16-18 hrs, read-out: MIC100
Acinetobacter baumannii [4] = assay: Antibacterial activity against multi-drug resistant Acinetobacter baumannii clinical isolate 9 assessed as inhibition of bacterial growth incubated for 16 to 18 hrs by CLSI protocol based method; type: functional; details: time 16-18 hrs, read-out: MIC100
Acinetobacter baumannii [5] = assay: Antibacterial activity against multi-drug resistant Acinetobacter baumannii 5-189 assessed as inhibition of bacterial growth incubated for 16 to 18 hrs by CLSI protocol based method; type: functional; details: time 16-18 hrs, read-out: MIC100
Acinetobacter baumannii [6] = assay: Antibacterial activity against multi-drug resistant Acinetobacter baumannii clinical isolate 8 assessed as inhibition of bacterial growth incubated for 16 to 18 hrs by CLSI protocol based method; type: functional; details: time 16-18 hrs, read-out: MIC100
Acinetobacter baumannii [7] = assay: Antibacterial activity against multi-drug resistant Acinetobacter baumannii clinical isolate 11 assessed as inhibition of bacterial growth incubated for 16 to 18 hrs by CLSI protocol based method; type: functional; details: time 16-18 hrs, read-out: MIC100
Acinetobacter baumannii [8] = assay: Antibacterial activity against carbapenem-resistant Acinetobacter baumannii BAA 1605 assessed as inhibition of bacterial growth incubated 24 hrs in presence of amikacin by checkerboard method; type: functional
Acinetobacter baumannii [9] = assay: Antibacterial activity against multi-drug resistant Acinetobacter baumannii clinical isolate 2 assessed as inhibition of bacterial growth incubated for 16 to 18 hrs by CLSI protocol based method; type: functional; details: time 16-18 hrs, read-out: MIC100
Acinetobacter baumannii [10] = assay: Synergistic antibacterial activity against carbapenem-resistant Acinetobacter baumannii BAA 1605 assessed as inhibition of bacterial growth incubated 24 hrs in presence of tobramycin by checkerboard method; type: functional
Acinetobacter baumannii [11] = assay: Antibacterial activity against carbapenem-resistant Acinetobacter baumannii BAA 1605 assessed as inhibition of bacterial growth by measuring fractional inhibitory concentration incubated 24 hrs in presence of amikacin by checkerboard method; type: functional
Acinetobacter baumannii [12] = assay: Antibacterial activity against carbapenem-resistant Acinetobacter baumannii BAA 1605 assessed as inhibition of bacterial growth by measuring fractional inhibitory concentration incubated 24 hrs in presence of polymyxin B by checkerboard method; type: functional
Acinetobacter baumannii [13] = assay: Antibacterial activity against carbapenem-resistant Acinetobacter baumannii BAA 1605 assessed as inhibition of bacterial growth incubated 24 hrs in presence of levofloxacin by checkerboard method; type: functional
Acinetobacter baumannii [14] = assay: Antibacterial activity against carbapenem-resistant Acinetobacter baumannii BAA 1605 assessed as inhibition of bacterial growth incubated 24 hrs in presence of minocycline by checkerboard method; type: functional
Acinetobacter baumannii [15] = assay: Antibacterial activity against carbapenem-resistant Acinetobacter baumannii BAA 1605 assessed as inhibition of bacterial growth incubated for 16 to 18 hrs by CLSI protocol based method; type: functional; details: time 16-18 hrs, read-out: MIC100
Escherichia coli = assay: Antibacterial activity against Escherichia coli ATCC 25922 assessed as inhibition of bacterial growth incubated for 16 to 18 hrs by CLSI protocol based method; type: functional; details: time 16-18 hrs, read-out: MIC100
Acinetobacter baumannii [16] = assay: Antibacterial activity against carbapenem-resistant Acinetobacter baumannii BAA 1605 assessed as minocycline MIC by measuring fractional inhibitory concentration incubated 24 hrs by checkerboard method relative to minocycline alone; type: functional
Acinetobacter baumannii [17] = assay: Antibacterial activity against carbapenem-resistant Acinetobacter baumannii BAA 1605 assessed as tobramycin MIC by measuring fractional inhibitory concentration incubated 24 hrs by checkerboard method relative to tobramycin alone; type: functional
Acinetobacter baumannii [18] = assay: Antibacterial activity against carbapenem-resistant Acinetobacter baumannii BAA 1605 assessed as inhibition of bacterial growth by measuring fractional inhibitory concentration incubated 24 hrs in presence of rifampicin by checkerboard method; type: functional
Acinetobacter baumannii [19] = assay: Antibacterial activity against multi-drug resistant Acinetobacter baumannii clinical isolate 7 assessed as inhibition of bacterial growth incubated for 16 to 18 hrs by CLSI protocol based method; type: functional; details: time 16-18 hrs, read-out: MIC100
Acinetobacter baumannii [20] = assay: Antibacterial activity against carbapenem-resistant Acinetobacter baumannii BAA 1605 assessed as inhibition of bacterial growth incubated 24 hrs in presence of rifampicin by checkerboard method; type: functional
Acinetobacter baumannii [21] = assay: Antibacterial activity against multi-drug resistant Acinetobacter baumannii H72721 assessed as inhibition of bacterial growth incubated for 16 to 18 hrs by CLSI protocol based method; type: functional; details: time 16-18 hrs, read-out: MIC100
Acinetobacter baumannii [22] = assay: Antibacterial activity against carbapenem-resistant Acinetobacter baumannii BAA 1605 assessed as levofloxacin MIC by measuring fractional inhibitory concentration incubated 24 hrs by checkerboard method relative to levofloxacin alone; type: functional
Acinetobacter baumannii [23] = assay: Antibacterial activity against multi-drug resistant Acinetobacter baumannii Naval-81 assessed as inhibition of bacterial growth incubated for 16 to 18 hrs by CLSI protocol based method; type: functional; details: time 16-18 hrs, read-out: MIC100
Acinetobacter baumannii [24] = assay: Antibacterial activity against carbapenem-resistant Acinetobacter baumannii BAA 1605 assessed as inhibition of bacterial growth by measuring amikacin MIC incubated 24 hrs by checkerboard method; type: functional
Pseudomonas aeruginosa = assay: Antibacterial activity against Pseudomonas aeruginosa ATCC 27853 assessed as inhibition of bacterial growth incubated for 16 to 18 hrs by CLSI protocol based method; type: functional; details: time 16-18 hrs, read-out: MIC100
Staphylococcus aureus = assay: Antibacterial activity against Staphylococcus aureus ATCC 29213 assessed as inhibition of bacterial growth incubated for 16 to 18 hrs by CLSI protocol based method; type: functional; details: time 16-18 hrs, read-out: MIC100
Acinetobacter baumannii [25] = assay: Antibacterial activity against multi-drug resistant Acinetobacter baumannii WL-487 assessed as inhibition of bacterial growth incubated for 16 to 18 hrs by CLSI protocol based method; type: functional; details: time 16-18 hrs, read-out: MIC100
Acinetobacter baumannii [26] = assay: Antibacterial activity against multi-drug resistant Acinetobacter baumannii clinical isolate 12 assessed as inhibition of bacterial growth incubated for 16 to 18 hrs by CLSI protocol based method; type: functional; details: time 16-18 hrs, read-out: MIC100
Acinetobacter baumannii [27] = assay: Antibacterial activity against multi-drug resistant Acinetobacter baumannii clinical isolate 6 assessed as inhibition of bacterial growth incubated for 16 to 18 hrs by CLSI protocol based method; type: functional; details: time 16-18 hrs, read-out: MIC100
Acinetobacter baumannii [28] = assay: Antibacterial activity against carbapenem-resistant Acinetobacter baumannii BAA 1605 assessed as amikacin MIC by measuring fractional inhibitory concentration incubated 24 hrs by checkerboard method relative to amikacin alone; type: functional
Acinetobacter baumannii [29] = assay: Antibacterial activity against multi-drug resistant Acinetobacter baumannii 5-143 assessed as inhibition of bacterial growth incubated for 16 to 18 hrs by CLSI protocol based method; type: functional; details: time 16-18 hrs, read-out: MIC100
Acinetobacter baumannii [30] = assay: Antibacterial activity against multi-drug resistant Acinetobacter baumannii clinical isolate 5 assessed as inhibition of bacterial growth incubated for 16 to 18 hrs by CLSI protocol based method; type: functional; details: time 16-18 hrs, read-out: MIC100
Acinetobacter baumannii [31] = assay: Antibacterial activity against carbapenem-resistant Acinetobacter baumannii BAA 1605 assessed as reduction in bacterial growth incubated for 24 hrs by time-kill kinetics analysis; type: functional, organism-based
Acinetobacter baumannii [32] = assay: Antibacterial activity against multi-drug resistant Acinetobacter baumannii clinical isolate 10 assessed as inhibition of bacterial growth incubated for 16 to 18 hrs by CLSI protocol based method; type: functional; details: time 16-18 hrs, read-out: MIC100
Acinetobacter baumannii [33] = assay: Antibacterial activity against carbapenem-resistant Acinetobacter baumannii BAA 1605 assessed as inhibition of bacterial growth by measuring fractional inhibitory concentration incubated 24 hrs in presence of minocycline by checkerboard method; type: functional
Acinetobacter baumannii [34] = assay: Antibacterial activity against multi-drug resistant Acinetobacter baumannii clinical isolate 4 assessed as inhibition of bacterial growth incubated for 16 to 18 hrs by CLSI protocol based method; type: functional; details: time 16-18 hrs, read-out: MIC100

For O=C(CCN1C(=O)c2cccc3cccc(c23)C1=O)NNc1ccc(Br)cc1, which MIC (Acinetobacter baumannii [1]) is on record?
Its MIC is 0.25 µg/mL (≈ 0.57 µM).

What about the Activity (Acinetobacter baumannii [2]) of the same molecule?
The Activity was “Active”.

What about the MIC (Acinetobacter baumannii [3]) of the same molecule?
The MIC was 0.25 µg/mL (≈ 0.57 µM).

What about the MIC (Acinetobacter baumannii [4]) of the same molecule?
The MIC was 0.5 µg/mL (≈ 1.14 µM).

And the MIC (Acinetobacter baumannii [5])?
Its MIC is 0.5 µg/mL (≈ 1.14 µM).

What about the MIC (Acinetobacter baumannii [6]) of the same molecule?
Its MIC is 0.5 µg/mL (≈ 1.14 µM).

And the MIC (Acinetobacter baumannii [7])?
The MIC was 4 µg/mL (≈ 9.13 µM).

What about the MIC (Acinetobacter baumannii [8]) of the same molecule?
Its MIC is 0.25 µg/mL.

And the MIC (Acinetobacter baumannii [9])?
The MIC was 0.5 µg/mL (≈ 1.14 µM).

What about the MIC (Acinetobacter baumannii [10]) of the same molecule?
Its MIC is 0.25 µg/mL.

What about the FIC (Acinetobacter baumannii [11]) of the same molecule?
The FIC was 0.25.

And the FIC (Acinetobacter baumannii [12])?
The FIC was 0.25.

What about the MIC (Acinetobacter baumannii [13]) of the same molecule?
The MIC was 1 µg/mL.

What about the MIC (Acinetobacter baumannii [14]) of the same molecule?
The MIC was 1 µg/mL.

What about the MIC (Acinetobacter baumannii [15]) of the same molecule?
Its MIC is 0.5 µg/mL (≈ 1.14 µM).

And the MIC (Escherichia coli)?
Its MIC is greater than 64 µg/mL.

What about the FIC (Acinetobacter baumannii [16]) of the same molecule?
Its FIC is 1.

What about the FIC (Acinetobacter baumannii [17]) of the same molecule?
Its FIC is 0.25.

And the FIC (Acinetobacter baumannii [18])?
Its FIC is 0.5.

What about the MIC (Acinetobacter baumannii [19]) of the same molecule?
Its MIC is 0.5 µg/mL (≈ 1.14 µM).

And the MIC (Acinetobacter baumannii [20])?
Its MIC is 0.5 µg/mL.

What about the MIC (Acinetobacter baumannii [21]) of the same molecule?
The MIC was 0.5 µg/mL (≈ 1.14 µM).

And the FIC (Acinetobacter baumannii [22])?
The FIC was 1.

What about the MIC (Acinetobacter baumannii [23]) of the same molecule?
The MIC was 0.5 µg/mL (≈ 1.14 µM).

What about the MIC (Acinetobacter baumannii [24]) of the same molecule?
The MIC was 2 µg/mL.

And the MIC (Pseudomonas aeruginosa)?
Its MIC is greater than 64 µg/mL.

What about the MIC (Staphylococcus aureus) of the same molecule?
Its MIC is greater than 64 µg/mL.

And the MIC (Acinetobacter baumannii [25])?
The MIC was 0.5 µg/mL (≈ 1.14 µM).

What about the MIC (Acinetobacter baumannii [26]) of the same molecule?
The MIC was 0.5 µg/mL (≈ 1.14 µM).

What about the MIC (Acinetobacter baumannii [27]) of the same molecule?
The MIC was 0.5 µg/mL (≈ 1.14 µM).

And the FIC (Acinetobacter baumannii [28])?
Its FIC is 0.5.

And the MIC (Acinetobacter baumannii [29])?
The MIC was 0.25 µg/mL (≈ 0.57 µM).

And the MIC (Acinetobacter baumannii [30])?
The MIC was 1 µg/mL (≈ 2.28 µM).

And the Activity (Acinetobacter baumannii [31])?
Its Activity is “inactive”.

What about the MIC (Acinetobacter baumannii [32]) of the same molecule?
The MIC was 0.5 µg/mL (≈ 1.14 µM).

And the FIC (Acinetobacter baumannii [33])?
Its FIC is 1.

What about the MIC (Acinetobacter baumannii [34]) of the same molecule?
Its MIC is 0.5 µg/mL (≈ 1.14 µM).
